Measurements taken from patent US12703729B2, “GIP agonist compounds and methods” (Zealand Pharma A/S, priority 2014, dated 2026).
Starred links: 1 amine or outer side, 2 acyl side, 3 side chain; linkers in the order of their positions; H or OH if unused. Non-standard residues stand in square brackets, D forms with d. Residues, ends and D or L forms follow the SMILES beside them. Groups on a side chain read outwards from the residue. *: point of attachment. C20 diacid = O=C(O)CCCCCCCCCCCCCCCCCCC(=O)*; γGlu = O=C(O)[C@H](CCC(=O)[*:2])N[*:1]; AEEA = NCCOCCOCC(=O)O; Aib = CC(C)(N)C(=O)O

What was measured:
[1] = biological target: T1, human GIP receptor (GIP R) (Homo sapiens, UniProt P48546); experiment: Activity assay at human GIP receptor, cAMP induction (AlphaScreen), Example 3
T1 sequence (P48546 22-466): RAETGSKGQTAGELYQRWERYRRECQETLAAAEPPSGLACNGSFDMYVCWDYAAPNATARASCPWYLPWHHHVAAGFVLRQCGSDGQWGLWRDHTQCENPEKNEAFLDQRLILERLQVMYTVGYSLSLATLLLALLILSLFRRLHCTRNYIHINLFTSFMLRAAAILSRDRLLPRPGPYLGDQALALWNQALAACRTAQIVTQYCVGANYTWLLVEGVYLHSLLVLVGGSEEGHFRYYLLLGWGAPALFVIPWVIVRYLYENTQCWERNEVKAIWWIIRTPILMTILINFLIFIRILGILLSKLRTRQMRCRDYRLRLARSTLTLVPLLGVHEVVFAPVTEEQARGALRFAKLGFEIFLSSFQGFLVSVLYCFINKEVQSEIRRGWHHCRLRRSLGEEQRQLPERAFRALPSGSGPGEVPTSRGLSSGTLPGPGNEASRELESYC

in vivo = conditions: male, C57BL/6J, mouse; for bioavailability: Bioavailability s.c.; for half-life: 200 nmol/kg
[2] = male, C57BL/6J, mouse, in vivo
human GIP R = biological target: T2, human GIP R (Homo sapiens, UniProt P48546); experiment: cell-based
T2 sequence (P48546 22-466): T1 sequence (P48546 22-466)

[3] = biological target: human GLP-1 receptor (GLP-1R) (Homo sapiens, UniProt P43220); experiment: Activity assay at human GLP-1 receptor, cAMP induction (AlphaScreen), Example 3
Chain of human GLP-1 receptor (GLP-1R) (P43220 24-463): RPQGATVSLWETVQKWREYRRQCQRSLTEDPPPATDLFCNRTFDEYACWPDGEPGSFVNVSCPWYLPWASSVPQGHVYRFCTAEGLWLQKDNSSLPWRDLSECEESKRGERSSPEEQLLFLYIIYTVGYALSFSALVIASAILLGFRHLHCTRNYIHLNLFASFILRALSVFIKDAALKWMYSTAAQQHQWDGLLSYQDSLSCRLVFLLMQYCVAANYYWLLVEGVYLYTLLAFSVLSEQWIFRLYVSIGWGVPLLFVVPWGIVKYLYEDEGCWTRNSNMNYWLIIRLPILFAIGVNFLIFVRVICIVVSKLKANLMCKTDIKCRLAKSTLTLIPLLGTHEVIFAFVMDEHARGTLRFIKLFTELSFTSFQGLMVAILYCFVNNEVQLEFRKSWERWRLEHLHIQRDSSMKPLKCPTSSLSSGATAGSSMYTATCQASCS

[4] = iv, Terminal elimination half-life T½ i.v.
[5] = sc, Terminal elimination half-life T½ s.c.

SMILES	EC50 [1] [nM]	bioavailability (in vivo) [%]	half-life (in vivo; [4]) [h]	Tmax (in vivo; sc) [h]	half-life (in vivo; [5]) [h]	Bioavailability s.c. [2] [%]	Terminal elimination half-life T½ i.v. ([2]; iv, 200 nmol/kg) [h]	Terminal elimination half-life T½ s.c. ([2]; sc, 200 nmol/kg) [h]	EC50 (human GIP R) [nM]	EC50 [3] [nM]
CC[C@H](C)[C@H](NC(=O)[C@H](CCCCN)NC(=O)[C@H](CC(=O)O)NC(=O)[C@H](CC(C)C)NC(=O)[C@H](CCC(=O)O)NC(=O)[C@@H](NC(=O)[C@H](CO)NC(=O)[C@H](Cc1ccc(O)cc1)NC(=O)[C@H](CC(=O)O)NC(=O)[C@H](CO)NC(=O)[C@@H](NC(=O)[C@H](Cc1ccccc1)NC(=O)[C@@H](NC(=O)CNC(=O)[C@H](CCC(=O)O)NC(=O)C(C)(C)NC(=O)[C@@H](N)Cc1ccc(O)cc1)[C@@H](C)O)[C@@H](C)CC)[C@@H](C)CC)C(=O)N[C@@H](C)C(=O)N[C@@H](C)C(=O)N[C@@H](CCC(N)=O)C(=O)N[C@@H](CC(=O)O)C(=O)N[C@@H](Cc1ccccc1)C(=O)N[C@H](C(=O)N[C@@H](CC(N)=O)C(=O)N[C@@H](Cc1c[nH]c2ccccc12)C(=O)N[C@@H](CC(C)C)C(=O)N[C@@H](CC(C)C)C(=O)N[C@@H](C)C(=O)NCC(=O)N1CCC[C@H]1C(=O)N[C@@H](CO)C(=O)N[C@@H](CO)C(=O)NCC(=O)N[C@@H](C)C(=O)N1CCC[C@H]1C(=O)N1CCC[C@H]1C(=O)N1CCC[C@H]1C(=O)N[C@@H](CO)C(=O)N[C@@H](CCCCNC(=O)COCCOCCNC(=O)COCCOCCNC(=O)CC[C@H](NC(=O)CCCCCCCCCCCCCCCCCCC(=O)O)C(=O)O)C(N)=O)C(C)C [Compound 16] (H-Y[Aib]EGTFISDYSIELDKIAAQDFVNWLLAGPSSGAPPPSK([AEEA-AEEA-γGlu-C20 diacid])-NH2)	0.012	81	23.3	8	23.6	88	19.2	16.7	0.016	> 10
CC[C@H](C)[C@H](NC(=O)[C@H](CCCCN)NC(=O)[C@H](CC(=O)O)NC(=O)[C@H](CC(C)C)NC(=O)[C@H](CCC(=O)O)NC(=O)[C@H](CCCCNC(=O)COCCOCCNC(=O)COCCOCCNC(=O)CC[C@H](NC(=O)CCCCCCCCCCCCCCCCCCC(=O)O)C(=O)O)NC(=O)[C@H](CO)NC(=O)[C@H](Cc1ccc(O)cc1)NC(=O)[C@H](CC(=O)O)NC(=O)[C@H](CO)NC(=O)[C@@H](NC(=O)[C@H](Cc1ccccc1)NC(=O)[C@@H](NC(=O)CNC(=O)[C@H](CCC(=O)O)NC(=O)C(C)(C)NC(=O)[C@@H](N)Cc1ccc(O)cc1)[C@@H](C)O)[C@@H](C)CC)C(=O)N[C@@H](C)C(=O)N[C@@H](CCC(N)=O)C(=O)N[C@@H](CCCNC(=N)N)C(=O)N[C@@H](C)C(=O)N[C@@H](Cc1ccccc1)C(=O)N[C@H](C(=O)N[C@@H](CCC(=O)O)C(=O)N[C@@H](Cc1c[nH]c2ccccc12)C(=O)N[C@@H](CC(C)C)C(=O)N[C@@H](CC(C)C)C(=O)N[C@@H](C)C(=O)N[C@@H](CCC(N)=O)C(=O)NCC(=O)N1CCC[C@H]1C(=O)N[C@@H](CO)C(=O)N[C@@H](CO)C(=O)NCC(=O)N[C@@H](C)C(=O)N1CCC[C@H]1C(=O)N1CCC[C@H]1C(=O)N1CCC[C@H]1C(=O)N[C@@H](CO)C(N)=O)[C@@H](C)CC [Compound 35] (H-Y[Aib]EGTFISDYSK([AEEA-AEEA-γGlu-C20 diacid])ELDKIAQRAFIEWLLAQGPSSGAPPPS-NH2)	0.011	73	14.5	4	14.5				0.008	> 3
CC[C@H](C)[C@H](NC(=O)[C@H](Cc1ccccc1)NC(=O)[C@H](C)NC(=O)[C@H](CCC(N)=O)NC(=O)[C@H](C)NC(=O)[C@H](C)NC(=O)[C@H](CCCCNC(=O)COCCOCCNC(=O)COCCOCCNC(=O)CN1CCN(C(=O)CCCCCCCCCCCCCCCCCCC(=O)O)CC1)NC(=O)[C@H](CCCCN)NC(=O)[C@H](CC(=O)O)NC(=O)[C@H](CC(C)C)NC(=O)[C@H](CCC(=O)O)NC(=O)[C@@H](NC(=O)[C@H](CO)NC(=O)[C@H](Cc1ccc(O)cc1)NC(=O)[C@H](CC(=O)O)NC(=O)[C@H](CO)NC(=O)[C@@H](NC(=O)[C@H](Cc1ccccc1)NC(=O)[C@@H](NC(=O)CNC(=O)[C@H](CCC(=O)O)NC(=O)C(C)(C)NC(=O)[C@@H](N)Cc1ccc(O)cc1)[C@@H](C)O)[C@@H](C)CC)[C@@H](C)CC)C(=O)N[C@@H](CCC(=O)O)C(=O)N[C@@H](Cc1c[nH]c2ccccc12)C(=O)N[C@@H](CC(C)C)C(=O)N[C@@H](CC(C)C)C(=O)N[C@@H](C)C(=O)N[C@@H](CCC(N)=O)C(=O)NCC(=O)N1CCC[C@H]1C(=O)N[C@@H](CO)C(=O)N[C@@H](CO)C(=O)NCC(=O)N[C@@H](C)C(=O)N1CCC[C@H]1C(=O)N1CCC[C@H]1C(=O)N1CCC[C@H]1C(=O)N[C@@H](CO)C(N)=O [Compound 41]	0.01	70	17.6	8	16.5				0.014	> 10
